Measurements from PMC3229523, “Identification of Lactoferricin B Intracellular Targets Using an Escherichia coli Proteome Chip” (PLoS ONE, 2011).
“Also recorded” adds a separate entry of the source. Ends that are not written are not given here. * marks the point of attachment. Biotin = O=C1N[C@H]2[C@H](CS[C@H]2CCCCC(=O)*)N1

Columns and labels:
E. coli K-12 MG1655 = assay: E. coli growth inhibition (growth curves, OD595); type: cell-based; conditions: 22.4 µM, approx. 10^7 CFU/ml, LB medium, 37°C with shaking, OD595 every 20 min for 7 h 20 min, PBS negative control, Figure 2
Description: The E. coli K-12 MG1655 strain was first inoculated into LB medium and incubated at 37°C with shaking for 16 h. After incubation, the culture was diluted to approximately 10^7 CFU/ml using LB medium. Then, 22.4 µM of N-terminal biotinylated LfcinB (Kelowna Inc.), LfcinB (Kelowna Inc.) or biotin (Thermo) were individually added to the diluted cultures in a 96-well plate. PBS was used as a negative control. Finally, each compound or PBS with E. coli was incubated at 37°C with shaking and the growth curves were observed by measuring the OD595 value every 20 min for 7 h 20 min in a microplate reader (Synergy 2, BioTek®).

[1] = test system: E. coli K-12 proteins (E. coli proteome chip); assay: E. coli proteome chip assay; type: binding; conditions: 10 nM N-terminal biotinylated LfcinB, 1% BSA, room temperature, 1 h; ratio DyLight 649 to DyLight 549, ProCAT local cut-off; triplicate
Description: To fabricate the proteome chips, E. coli K-12 proteins were expressed and purified in a high-throughput fashion. The procedure was modified from Chen et al.. Briefly, E. coli protein expression clones fused with a 6×-His tag, provided by Dr. Mori, were first incubated with glass beads (Biospec Products Inc.) in 2× LB medium containing 30 µg/ml chloramphenicol in 96 DeepWell™ plates (Nunc) at 37°C overnight. The overnight cultures were then diluted with 2× LB that contains 30 µg/ml chloramphenicol to the OD595 value of 0.1. When the cells grew to an OD595 value of 0.7–0.9, 500 µM of isopropyl β-D-thiogalactoside (IPTG) was added to induce protein expression at 37°C for ∼3.5 h. The cultures were then harvested by centrifugation at 3220 g for 5 min at 4°C, and the pellets were stored at −80°C before purification. […]
For image processing of chip assay results, Genepix Pro 6.0 was used to align the protein spot of each individual protein and then all aligned protein image signals were exported as a text file. The text file was analyzed by ProCAT [17], a signal normalization method. The relative ability of LfcinB to bind to each protein was estimated by the ratio of the fluorescence intensity of LfcinB to the fluorescence intensity of an anti-His antibody after the normalization. […]

| Compound | growth curves / inhibition of E. coli growth (E. coli K-12 MG1655) | number of proteins selected as LfcinB-binding (top 5% of the E. coli proteome, membrane proteins ruled out) [1] [proteins] |
| --- | --- | --- |
| O=C(O)CCCC[C@@H]1SC[C@@H]2NC(=O)N[C@@H]21 [biotin, reference compound] | had no influence on E. coli growth | – |
| biotinylated LfcinB: N-terminal biotinylated LfcinB (Kelowna Inc.), used as probe in chip assays (Biotin-FKCRRWQWRMKKLGAPSITCVRRAF; ends and bridges not checked) | exhibited the same inhibition of E. coli growth; also recorded: exhibit the same antibacterial activity | 153 |
